According to patent publication US8414958B2, “Implant and method for the manufacture thereof” (Thommen Medical AG, priority 2008, dated 2013):

What was measured:
[1] = tested on: tibias of rats; settings: titanium implants in tibias, daily into the abdominal cavity; cited from earlier work
[2] = tested on: parietal bone of rabbits; settings: parietal bone fractures, collagen sponges; cited from earlier work
[3] = tested on: bones of rats; settings: calcium sulfate carrier disks, eight weeks, compared to control group; cited from earlier work
[4] = tested on: jawbones of rats; settings: jawbone fractures, gelatin sponges; cited from earlier work
[5] = Solubility in ethanol and ethanol/water mixtures; format: physicochemical

Row | solubility in water | ethanol content of the ethanol/water mixture in which the substance dissolves [5] [% ethanol] | SMILES | bone density around the implant [1] | formation of new bone [2] | bone density [3] | bone mineral density [3] | mineral content of the bones [3] | bone density above that of the control group receiving no active ingredient [4] | formation of new bone in histological studies [4]
1 |  |  | CCC(C)(C)C(=O)O[C@H]1C[C@@H](C)C=C2C=CC(C)[C@H](CC[C@@H]3C[C@@H](O)CC(=O)O3)[C@H]21 (stereo in doubt) [simvastatin, [(1S,3R,7R,8S,8aR)-8-[2-[(2R,4R)-4-hydroxy-6-oxo-oxan-2-yl]ethyl]-3,7-dimethyl-1,2,3,7,8,8a-hexahydronaphthalen-1-yl] 2,2-dimethylbutanoate] | significant increase | accelerated formation of new bone | significant increase | significant increase | significant increase | 190-240% | enhanced formation of new bone was detectable
2 | water-soluble | 25 | CCC(C)(C)C(=O)O[C@H]1C[C@@H](C)C=C2C=C[C@H](C)[C@H](CC[C@@H](O)C[C@@H](O)CC(=O)O)[C@H]21 [open-chain acid form of simvastatin] |  |  |  |  |  |  | 
